From ChEMBL document CHEMBL3217457, “Carbazolepyrrolo[2,1-c][1,4]benzodiazepine conjugates: design, synthesis, and biological evaluation” (Medchemcomm, 2011)
The source made the active and inactive calls. The rule behind the calls is not given here.

What was measured:
NCI-H23 = assay: Growth inhibition of human NCI-H23 cells; type: functional
[1] = Growth inhibition of human MDA-MB cells; type: functional
Malme-3M = assay: Growth inhibition of human MALME-3M cells; type: functional
SK-MEL-5 = assay: Growth inhibition of human SK-MEL-5 cells; type: functional
[2] = Growth inhibition of human OVCAR4 cells; type: functional; conditions: OVCAR-4
U-251 = assay: Growth inhibition of human U251 cells; type: functional
[3] = Growth inhibition of human UO31 cells; type: functional; conditions: UO-31
SF-268 = assay: Growth inhibition of human SF268 cells; type: functional
[4] = Growth inhibition of human OVCAR3 cells; type: functional; conditions: OVCAR-3
KB = assay: Growth inhibition of human KB cells; type: functional
SN12C = assay: Growth inhibition of human SN12C cells; type: functional
A2780 = assay: Growth inhibition of human A2780 cells; type: functional
KM12 = assay: Growth inhibition of human KM12 cells; type: functional
SW-620 = assay: Growth inhibition of human SW620 cells; type: functional
MCF7 [5] = assay: Cell cycle arrest in human MCF7 cells assessed as accumulation at G1 phase at 4 uM after 24 hrs by propidium iodide staining based flow cytometry (reference value: 57.98%); type: functional
[6] = Growth inhibition of human HOP92 cells; type: functional; conditions: HOP-92
[7] = Growth inhibition of human UACC62 cells; type: functional; conditions: UACC-62
NCI-H226 = assay: Growth inhibition of human NCI-H226 cells; type: functional
[8] = Growth inhibition of human RXF393 cells; type: functional; conditions: RXF 393
ACHN = assay: Growth inhibition of human ACHN cells; type: functional
MCF7 [9] = assay: Cell cycle arrest in human MCF7 cells assessed as accumulation at G0/G1 phase at 4 uM after 24 hrs by propidium iodide staining based flow cytometry (reference value: 60.75%); type: functional
[10] = Growth inhibition of human HCT15 cells; type: functional; conditions: HCT-15
DU-145 = assay: Growth inhibition of human DU145 cells; type: functional
SR = assay: Growth inhibition of human SR cells; type: functional
MCF7 [11] = assay: Cytotoxicity against human MCF7 cells assessed as decrease in cell viability at 4 uM after 24 hrs by MTT assay; type: functional, cell-based
MCF7 [12] = assay: Antiproliferative activity against human MCF7 cells assessed as cell proliferation at 4 uM after 24 hrs by BrdU incorporation assay (reference value: 100%); type: functional; conditions: MCF7, 24 h, read-out: Activity
MCF7 [13] = assay: Cytotoxicity against human MCF7 cells by ATP-dependent cell viability assay; type: functional, cell-based
PC-3 = assay: Growth inhibition of human PC3 cells; type: functional
TK-10 = assay: Growth inhibition of human TK10 cells; type: functional
HL-60(TB) = assay: Growth inhibition of human HL-60(TB) cells; type: functional
ZR-75-1 = assay: Growth inhibition of human ZR-75-1 cells; type: functional
Calf thymus DNA = assay: Binding affinity to calf thymus DNA assessed as change in melting temperature at compound to DNA ratio of 1:5 after 18 hrs by thermal denaturation analysis; type: nucleic-acid assay; conditions: Bos taurus
[14] = Growth inhibition of human LOXIMVI cells; type: functional; conditions: LOX IMVI
NCI-H522 = assay: Growth inhibition of human NCI-H522 cells; type: functional
A498 = assay: Growth inhibition of human A498 cells; type: functional
HCT-116 = assay: Growth inhibition of human HCT116 cells; type: functional
CCRF-CEM = assay: Growth inhibition of human CCRF-CEM cells; type: functional
[15] = Growth inhibition of human HCC2998 cells; type: functional; conditions: HCC 2998
SK-OV-3 = assay: Growth inhibition of human SKOV3 cells; type: functional
[16] = Growth inhibition of human Gurav cells; type: functional
[17] = Growth inhibition of human UACC257 cells; type: functional; conditions: UACC-257
A549 = assay: Growth inhibition of human A549 cells; type: functional
MCF7 [18] = assay: Growth inhibition of human MCF7 cells; type: functional
HT-29 = assay: Growth inhibition of human HT-29 cells; type: functional
IGROV-1 = assay: Growth inhibition of human IGROV1 cells; type: functional
M14 = assay: Growth inhibition of human M14 cells; type: functional
[19] = Growth inhibition of human SF539 cells; type: functional; conditions: SF-539
SK-MEL-28 = assay: Growth inhibition of human SK-MEL-28 cells; type: functional
MDA-MB-435 = assay: Growth inhibition of human MDA-MB-435 cells; type: functional
[20] = Growth inhibition of human MOLT4 cells; type: functional; conditions: MOLT-4
MDA-MB-468 = assay: Growth inhibition of human MDA-MB-468 cells; type: functional
HOP-62 = assay: Growth inhibition of human HOP62 cells; type: functional
MCF7 [21] = assay: Cell cycle arrest in human MCF7 cells assessed as accumulation at G2/M phase at 4 uM after 24 hrs by propidium iodide staining based flow cytometry (reference value: 24.95%); type: functional
NCI-H322M = assay: Growth inhibition of human NCI-H322M cells; type: functional
SK-MEL-2 = assay: Growth inhibition of human SK-MEL-2 cells; type: functional
[22] = Growth inhibition of human Hs 578T cells; type: functional
[23] = Growth inhibition of human EKVX cells; type: functional
[24] = Growth inhibition of human OVCAR5 cells; type: functional; conditions: OVCAR-5
MCF7 [25] = assay: Cytotoxicity against human MCF7 cells assessed as decrease in cell viability at 2 to 16 uM after 6 to 48 hrs by MTT assay; type: functional, cell-based
SNB-19 = assay: Growth inhibition of human SNB19 cells; type: functional
CAKI-1 = assay: Growth inhibition of human CAKI-1 cells; type: functional
T47D = assay: Growth inhibition of human T47D cells; type: functional
MCF7 [26] = assay: Cell cycle arrest in human MCF7 cells assessed as accumulation at S phase at 4 uM after 24 hrs by propidium iodide staining based flow cytometry (reference value: 14.30%); type: functional
NCI-H460 = assay: Growth inhibition of human NCI-H460 cells; type: functional
SiHa = assay: Growth inhibition of human SiHa cells; type: functional
786-0 = assay: Growth inhibition of human 786-0 cells; type: functional
COLO 205 = assay: Growth inhibition of human COLO205 cells; type: functional
MCF7 [27] = assay: Cell cycle arrest in human MCF7 cells assessed as accumulation at G0 phase at 4 uM after 24 hrs by propidium iodide staining based flow cytometry (reference value: 2.77%); type: functional
[28] = Growth inhibition of human BT549 cells; type: functional; conditions: BT-549
SNB-75 = assay: Growth inhibition of human SNB75 cells; type: functional

For COc1cc2c(cc1OCCCN1CCN(CCCn3c4ccccc4c4ccccc43)CC1)N=C[C@@H]1CCCN1C2=O, the GI50 (NCI-H23) was 260 nM, the GI50 [1] was 950 nM and the GI50 (Malme-3M) was 150 nM. It also gave a GI50 (SK-MEL-5) of 230 nM, a GI50 [2] of 100 nM and a GI50 (U-251) of 30 nM. It also gave a GI50 [3] of 120 nM, a GI50 (SF-268) of 50 nM and a GI50 [4] of 69 nM. The GI50 (KB) was 130 nM, the GI50 (SN12C) was 270 nM and the GI50 (A2780) was 120 nM. It also gave a GI50 (KM12) of 150 nM, a GI50 (SW-620) of 40 nM and an Activity (MCF7 [5]) of 69.47%. It also gave a GI50 [6] of 270 nM, a GI50 [7] of 150 nM and a GI50 (NCI-H226) of 130 nM. It also gave a GI50 [8] of 220 nM, a GI50 (ACHN) of 250 nM and an Activity (MCF7 [9]) of 86.6%. For the same compound, the GI50 [10] was 280 nM, the GI50 (DU-145) was 40 nM and the GI50 (SR) was 30 nM. For the same compound, the inhibition (MCF7 [11]) was “Active”, the growth at 4 µM (MCF7 [12]) was 35.2% and the inhibition (MCF7 [13]) was “Active”. It also gave a GI50 (PC-3) of 30 nM, a GI50 (TK-10) of 120 nM and a GI50 (HL-60(TB)) of 30 nM. It also gave a GI50 (ZR-75-1) of 130 nM, a ΔTm (Calf thymus DNA) of 7 °C and a GI50 [14] of 30 nM. The GI50 (NCI-H522) was < 10 nM, the GI50 (A498) was 170 nM and the GI50 (HCT-116) was 60 nM. It also gave a GI50 (CCRF-CEM) of 20 nM, a GI50 [15] of 130 nM and a GI50 (SK-OV-3) of 290 nM. The GI50 [16] was 120 nM, the GI50 [17] was 150 nM and the GI50 (A549) was 140 nM. The GI50 (MCF7 [18]) was 40 nM, the GI50 (HT-29) was 50 nM and the GI50 (IGROV-1) was < 10 nM. For the same compound, the GI50 (M14) was 150 nM, the GI50 [19] was 120 nM and the GI50 (SK-MEL-28) was 60 nM. The GI50 (MDA-MB-435) was 10 nM, the GI50 [20] was 20 nM and the GI50 (MDA-MB-468) was 110 nM. It also gave a GI50 (HOP-62) of 80 nM, an Activity (MCF7 [21]) of 3.87% and a GI50 (NCI-H322M) of 250 nM. For the same compound, the GI50 (SK-MEL-2) was 190 nM, the GI50 [22] was 160 nM and the GI50 [23] was 140 nM. The GI50 [24] was 30 nM, the inhibition (MCF7 [25]) was “Active” and the GI50 (SNB-19) was 210 nM. For the same compound, the GI50 (CAKI-1) was 120 nM, the GI50 (T47D) was 170 nM and the Activity (MCF7 [26]) was 9.53%. It also gave a GI50 (NCI-H460) of 250 nM, a GI50 (SiHa) of 140 nM and a GI50 (786-0) of 190 nM. It also gave a GI50 (COLO 205) of 70 nM, an Activity (MCF7 [27]) of 17.13% and a GI50 [28] of 130 nM. The GI50 (SNB-75) was 150 nM.
